Source: patent US6750244B2, “Compounds active at a novel site on receptor-operated calcium channels useful for treatment of neurological disorders and diseases” (NPS Pharmaceuticals, Inc., priority 1993, dated 2004)
Where “and” joins values, the source holds several entries; their conditions need not be identical. Equal values may be shown once. Where a name gives a salt, the structure may show the parent alone. Read-outs that look alike come from different tables or passages of the source.

Legend:
[1] = system: NMDA receptor; test: Inhibition of NMDA/glycine-induced increases in intracellular calcium in cultured rat cerebellar granule cells (RCGC); assay type: cell-based; conditions: for IC50: read-out: IC50 (μM) vs. NMDA
[2] = system: mean arterial blood pressure; conditions: for no effect on mean arterial blood pressure / no (significant) cardiovascular activity at doses up to: i.v.
[3] = target: NMDA receptor-ionophore complex (site labeled by [3H]MK-801); test: Inhibition of [3H]MK-801 binding in rat cortical/hippocampal washed membrane preparations; conditions: read-out: IC50 (μM) vs. [3H]MK-801
[4] = system: motor performance; test: Acute motor impairment (rotorod) in mice; conditions: Frings mice; for TD50, acute motor impairment: i.c.v. injection
Procedure: (§1) In this assay, Frings and CF1 mice were injected with test compound and placed on a knurled rod which rotated at a speed of 6 rpm. The ability of the mice to maintain equilibrium for long periods of time was determined; those mice that were unable to maintain equilibrium on the rotorod for 1 min in each of 3 trials were considered impaired.

[5] = system: sound-induced seizures; test: Sound-induced seizures in Frings mice (reflex epilepsy); assay type: in vivo; conditions: for IC50, prevention of sound-induced seizures: intracerebroventricular (i.c.v.) injection; for ED50: Mus musculus, ip, Frings mice
[6] = in vivo; conditions: Frings, mouse, in vivo, ip
Procedure: as §1

[7] = system: central muscarinic cholinergic receptor; assay type: binding, rat
[8] = target: T1, dopamine uptake site (Cavia porcellus, UniProt H0WCX4); test: Dopamine uptake binding assay: [3H]WIN-35,428 binding to guinea pig striatal membranes
T1 construct: from tissue; host or cells: guinea pig striatal membranes (per the assay title)
T1 sequence (H0WCX4 1-619): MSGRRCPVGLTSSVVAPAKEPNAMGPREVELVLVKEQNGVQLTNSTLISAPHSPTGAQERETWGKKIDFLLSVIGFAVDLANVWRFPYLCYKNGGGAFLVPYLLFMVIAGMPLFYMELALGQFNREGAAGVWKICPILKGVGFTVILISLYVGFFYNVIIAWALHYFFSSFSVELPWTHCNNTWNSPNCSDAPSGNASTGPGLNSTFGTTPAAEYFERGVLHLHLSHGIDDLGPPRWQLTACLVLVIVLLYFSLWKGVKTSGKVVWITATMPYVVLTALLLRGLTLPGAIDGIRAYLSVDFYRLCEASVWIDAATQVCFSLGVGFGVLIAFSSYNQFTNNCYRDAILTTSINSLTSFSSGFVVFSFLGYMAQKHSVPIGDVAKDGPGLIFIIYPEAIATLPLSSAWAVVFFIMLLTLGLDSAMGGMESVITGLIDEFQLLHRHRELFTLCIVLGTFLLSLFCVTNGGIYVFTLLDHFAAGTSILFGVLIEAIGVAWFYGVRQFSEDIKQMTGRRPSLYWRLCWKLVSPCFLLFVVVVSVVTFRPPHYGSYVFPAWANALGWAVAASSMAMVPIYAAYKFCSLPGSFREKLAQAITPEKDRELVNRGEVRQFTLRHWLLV

[9] = target: T2, serotonin uptake site (Rattus norvegicus, UniProt P31652); test: Serotonin uptake binding assay: [3H]citalopram binding to rat forebrain membranes
T2 construct: from tissue; host or cells: rat forebrain membranes (per the assay title)
T2 sequence (P31652 whole entry): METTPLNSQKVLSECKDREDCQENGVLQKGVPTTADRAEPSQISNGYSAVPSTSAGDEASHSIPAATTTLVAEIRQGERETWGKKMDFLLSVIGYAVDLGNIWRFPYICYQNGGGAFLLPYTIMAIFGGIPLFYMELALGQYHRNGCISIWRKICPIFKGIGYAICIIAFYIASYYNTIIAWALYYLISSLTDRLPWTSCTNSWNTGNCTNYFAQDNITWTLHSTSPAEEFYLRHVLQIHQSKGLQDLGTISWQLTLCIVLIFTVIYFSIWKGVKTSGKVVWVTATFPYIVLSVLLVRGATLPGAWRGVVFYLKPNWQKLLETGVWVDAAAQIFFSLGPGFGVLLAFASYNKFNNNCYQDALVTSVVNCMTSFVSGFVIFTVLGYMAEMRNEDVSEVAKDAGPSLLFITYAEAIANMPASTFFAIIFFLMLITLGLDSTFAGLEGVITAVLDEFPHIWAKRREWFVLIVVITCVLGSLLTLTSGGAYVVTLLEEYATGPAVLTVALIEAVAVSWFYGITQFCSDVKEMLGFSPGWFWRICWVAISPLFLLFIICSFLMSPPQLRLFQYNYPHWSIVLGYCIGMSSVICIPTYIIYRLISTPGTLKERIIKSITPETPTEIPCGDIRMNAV

[10] = system: behavior; test: Behavioral effects in conscious male NMRI mice
[11] = target: T3, norepinephrine uptake site (Rattus norvegicus, UniProt Q63380); test: Norepinephrine uptake binding assay: [3H]desipramine binding to rat cortical membranes
T3 construct: from tissue; host or cells: rat cortical membranes (per the assay title)
T3 sequence (Q63380 1-617): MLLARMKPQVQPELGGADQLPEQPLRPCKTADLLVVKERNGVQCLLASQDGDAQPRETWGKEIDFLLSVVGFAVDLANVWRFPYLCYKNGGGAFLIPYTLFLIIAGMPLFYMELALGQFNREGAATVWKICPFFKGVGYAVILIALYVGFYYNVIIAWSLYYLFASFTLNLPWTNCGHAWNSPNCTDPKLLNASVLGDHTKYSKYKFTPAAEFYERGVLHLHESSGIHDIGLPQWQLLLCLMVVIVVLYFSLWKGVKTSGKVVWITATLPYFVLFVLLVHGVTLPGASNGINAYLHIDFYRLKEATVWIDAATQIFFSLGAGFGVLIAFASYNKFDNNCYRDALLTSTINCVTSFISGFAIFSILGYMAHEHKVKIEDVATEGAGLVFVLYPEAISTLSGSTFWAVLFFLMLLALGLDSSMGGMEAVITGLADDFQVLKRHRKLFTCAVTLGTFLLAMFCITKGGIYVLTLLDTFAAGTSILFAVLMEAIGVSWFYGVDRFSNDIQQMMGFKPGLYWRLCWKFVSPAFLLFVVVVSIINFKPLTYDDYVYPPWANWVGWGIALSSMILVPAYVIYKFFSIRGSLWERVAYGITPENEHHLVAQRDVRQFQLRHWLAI

[12] = NMDA/glycine-induced increases in intracellular calcium, cultured rat cerebellar granule cells
[13] = rat cortical/hippocampal washed membranes
[14] = rat cortical/hippocampal washed membranes, hydrochloride

SMILES | IC50 [1, 12] | IC50 [3, 13] | further results
CCNCCCNCCCNCCCNC(=O)Cc1c[nH]c2ccc(F)cc12 [Compound 11] | 4 µM | – | Drop in Mean Arterial Blood Pressure ([2]; 1 mg/kg i.v., rats): 20 mm Hg at 1; Drop in Mean Arterial Blood Pressure: duration ([2]; 1 mg/kg i.v., rats): mg/kg i.v., 30 min; duration of the hypotensive effect ([2]; systemic administration in rats): approximately 30 min
NCCCOCCCCOCCCNC(=O)Cc1c[nH]c2ccc(F)cc12 [Compound 12] | 6 µM | 98 µM | TD50, acute motor impairment [4]: 30.2 µg; no effect on mean arterial blood pressure / no (significant) cardiovascular activity at doses up to ([2]; rats): ≤ 37.3 µmol/kg; no effect on mean arterial blood pressure / no (significant) cardiovascular activity at doses up to ([2]; rats, listed as Compounds 12): up to 37.3 μmoles/kg; IC50, prevention of sound-induced seizures [5]: 12.2 µg
NCCCOCCCCOCCCNC(=O)Cc1cccc2ccccc12 [Compound 14] | 8.8 µM | – | TD50, acute motor impairment [4]: 30.8 µg; IC50, prevention of sound-induced seizures [5]: 13.9 µg
CC(CN)C(c1cccc(F)c1)c1cccc(F)c1 (centres unmarked) [Compound 21, 3,3-bis(3-fluorophenyl)-2-methyl-1-propylamine] | 0.038 µM | 0.457 µM | TD50 [6]: 15.3 mg/kg; ED50 [5]: 3.41 mg/kg
NCCC(c1cccc(Cl)c1)c1cccc(Cl)c1 [Compound 31, 3,3-bis(3-chlorophenyl)-1-propylamine] | 0.052 µM | 1.3 µM | TD50 [6]: 10 to 20 mg/kg; ED50 [5]: 6 mg/kg
C[C@H](CN)C(c1cccc(F)c1)c1cccc(F)c1 [Compound 34, 3,3-bis(3-fluorophenyl)-2-methyl-1-propylamine] | 0.426 µM | 2.7 µM | Central muscarinic cholinergic receptor: percent block of [3H]QNB binding ([7]; at 0.1 μM): 25% at; Central muscarinic cholinergic receptor: percent block of [3H]QNB binding ([7]; at 10 μM): 0.199% at; Monoamine uptake binding assays: dopamine uptake binding assay, percent block ([8]; at 0.1 μM): 60% at; Monoamine uptake binding assays: dopamine uptake binding assay, percent block ([8]; at 10 μM): 0.1^f99% at; Monoamine uptake binding assays: serotonin uptake binding assay, percent block ([9]; at 0.1 μM): 10^g12% at; Monoamine uptake binding assays: serotonin uptake binding assay, percent block ([9]; at 10 μM): 0.1^h79% at; TD50 [6]: 10 to 15 mg/kg; ED50 [5]: 22 mg/kg; behavioral effects ([10]; 2 mg/kg i.p.): hyperthermia; behavioral effects ([10]; 4 mg/kg i.p.): no behavioral effects; behavioral effects ([10]; 8 mg/kg i.p.): excitation, increased reactivity to touch, and hypothermia; behavioral effects ([10]; 64 mg/kg i.p.): convulsions; behavioral effects ([10]; 16 and 32 mg/kg i.p.): excitation, Straub tail, tremor, jumping, stereotypies, hypothermia, and mydriasis; behavioral effects ([10]; 128 and 256 mg/kg i.p.): convulsions and death; Monoamine uptake binding assays: norepinephrine uptake binding assay, percent block ([11]; at 0.1 μM): 10^f10% at; Monoamine uptake binding assays: norepinephrine uptake binding assay, percent block ([11]; at 10 μM): 0.1^g64% at
C[C@@H](N)CC(c1cccc(F)c1)c1cccc(F)c1 [Compound 51, 3,3-bis(3-fluorophenyl)-1-methyl-1-propylamine] | 1.1 µM | 4.5 µM | TD50 (motor impairment) ([4]; i.p.): 13.6 mg/kg; ED50 [5]: 9.1 mg/kg
Cc1ccc(F)cc1C(CCN)c1cccc(F)c1 (centres unmarked) [Compound 57, 3-(3-fluorophenyl)-3-(3-fluoro-6-methylphenyl)-1-propylamine] | 0.028 µM | 0.063 µM | TD50 [6]: 6 to 8 mg/kg; ED50 [5]: 1 mg/kg
N[C@@H]1CCCC1C(c1cccc(F)c1)c1cccc(F)c1 (some centres unmarked) [Compound 64] | 0.309 µM | 0.851 µM | Central muscarinic cholinergic receptor: percent block of [3H]QNB binding ([7]; at 0.1 μM): 11% at; Central muscarinic cholinergic receptor: percent block of [3H]QNB binding ([7]; at 10 μM): 0.183% at; Monoamine uptake binding assays: dopamine uptake binding assay, percent block ([8]; at 0.1 μM): 50% at; Monoamine uptake binding assays: dopamine uptake binding assay, percent block ([8]; at 10 μM): 0.1^f99% at; Monoamine uptake binding assays: serotonin uptake binding assay, percent block ([9]; at 0.1 μM): 10^g29% at; Monoamine uptake binding assays: serotonin uptake binding assay, percent block ([9]; at 10 μM): 0.1^h68% at; Monoamine uptake binding assays: norepinephrine uptake binding assay, percent block ([11]; at 0.1 μM): 8% at; Monoamine uptake binding assays: norepinephrine uptake binding assay, percent block ([11]; at 10 μM): 0.1^g65% at
NCCC(Oc1cccc(F)c1)c1cccc(F)c1 (centres unmarked) [Compound 119] | 0.115 µM | 0.087 µM | TD50 [6]: 26.3 mg/kg; ED50 [5]: 7 mg/kg
NCCC(Oc1cccc(Cl)c1)c1cccc(F)c1 (centres unmarked) [Compound 120] | 0.101 µM | 0.074 µM | TD50 [6]: 20 to 30 mg/kg; ED50 [5]: 4.77 mg/kg
NCCC(Oc1ccccc1F)c1cccc(F)c1 (centres unmarked) [Compound 122] | 0.209 µM | 0.342 µM | TD50 [6]: 15.3 mg/kg; ED50 [5]: 4.7 mg/kg
NCCC1c2ccccc2CCc2ccccc21 [Compound 156, 5-(2-Aminoethyl)-5H-10,11-dihydrodibenzo[a,d]cycloheptene hydrochloride] | 0.069 µM | – | IC50 [3, 14]: 0.09 µM and 0.081 µM; TD50 [6]: 17.4 mg/kg; ED50 [5]: 5 mg/kg
CCC(NCCC(c1ccccc1)c1ccccc1)c1cccc(Cl)c1 (centres unmarked) [Compound 159] | 0.185 µM | 10.4 µM | –
CCC(NCCC(c1ccccc1)c1ccccc1)c1ccc(Cl)cc1 (centres unmarked) [Compound 160] | 7.35 µM | 48.9 µM | –
CCC(NCCC(c1ccccc1)c1ccccc1)c1cccc(Br)c1 (centres unmarked) [Compound 161] | 0.247 µM | 5.62 µM | –
CCC(NCCC(c1ccccc1)c1ccccc1)c1ccccc1F (centres unmarked) [Compound 163] | 0.326 µM | 10.3 µM | –

SMILES | IC50 [1, 12] | IC50 [3, 13] | further results
CCC(NCCC(c1ccccc1)c1ccccc1)c1cccc(F)c1 (centres unmarked) [Compound 164] | 0.475 µM | 18.3 µM | –
CCC(NCCC(c1ccccc1)c1ccccc1)c1ccc(F)cc1 (centres unmarked) [Compound 165] | 0.337 µM | 171 µM | –
CCC(NCCC(c1ccccc1)c1ccccc1)c1ccc(OC)cc1 (centres unmarked) [Compound 166] | 0.619 µM | 36.7 µM | –
CCC(NCCC(c1ccccc1)c1ccccc1)c1cccc(C)c1 (centres unmarked) [Compound 168] | 0.092 µM | 17.4 µM | –
CCC(NCCC(c1ccccc1)c1ccccc1)c1ccc(C)cc1 (centres unmarked) [Compound 169] | 0.298 µM | 26.7 µM | –
CCC(NCCC(c1ccccc1)c1ccccc1)c1cccc([N+](=O)[O-])c1 (centres unmarked) [Compound 170] | 0.238 µM | 57 µM | –
c1ccc(C(CCNC(c2ccccc2)C2CC2)c2ccccc2)cc1 (centres unmarked) [Compound 171] | 0.31 µM | 39.6 µM | –
COc1ccc(C(=CCN)c2cccc(F)c2)cc1F [Compound 172, (E))- and (Z)-3-(3-Fluoro-4-methoxy)-3-(3-fluorophenyl)allylamine hydrochloride] | 38 µM | 37.3 µM | –
Cc1ccccc1OC(CCN)c1cccc(F)c1 (centres unmarked) [Compound 181] | 0.081 µM | 0.632 µM | –
NCCC1c2ccccc2Oc2ccccc21 [Compound 182] | 2.6 µM | 7.05 µM | –
NCCC1c2ccccc2Sc2ccccc21 [Compound 183] | 0.676 µM | 5.01 µM | –
NCCC1c2ccccc2C=Cc2ccccc21 [Compound 184] | 1.5 µM | 1.51 µM and 1.65 µM | –
NCC[C@H](Oc1cccc(F)c1)c1ccccc1 [Compound 186] | 0.155 µM | 0.123 µM | –
NCCC1c2ccccc2COc2ccccc21 (centres unmarked) [Compound 187, 11-(2-Aminoethyl)-11H-10,11-dihydrodibenzo[b,c]oxepine hydrochloride] | 1.78 µM | – | IC50 [3, 14]: 2.01 µM and 2.06 µM
NCCN1c2ccccc2CCc2ccccc21 [Eli Lilly Compound, reference compound] | 0.609 µM | 1.17 µM | –
CNCCC=C1c2ccccc2CCc2ccccc21 [Nortriptyline, reference compound] | – | – | IC50 [3]: 5.67 µM; IC50 [1]: 3.7 µM
CNCCCC1c2ccccc2C=Cc2ccccc21 [protriptyline, reference compound] | ≤ 10 µM | 21.4 µM | % inhibition vs. NMDA [1]: 73% @ 10 μM
